Reference: patent US20230172825A1, “COMPOSITION FOR IMPROVING SKIN COMPRISING AMINO ACID COMPLEX AS ACTIVE INGREDIENT” (NATURE IN LAB. INC., priority 2021, published 2023)

What was measured:
Assay type in all cases: cell-based, human
[1] = tested on: collagen type I; experiment: Gene expression of collagen type I (real-time PCR); conditions: CCD-1064Sk, 24 hours, concentration 100 µg/mℓ; control group 100.0
Description: After removal of the medium, the cells were collected by using QIAzol™ Lysis Reagent (Qiagen), and RNA thereof was isolated according to the protocol of the manufacturer. After quantifying the isolated RNA, cDNA was synthesized with 1 µg of RNA, followed by Real-time PCR (Applied Biosystems, 7500 FAST Real-Time PCR System).

[2] = tested on: collagen type III; experiment: Gene expression of collagen type III (real-time PCR); conditions: CCD-1064Sk, 24 hours, concentration 100 µg/mℓ; control group 100.0
Description: Human dermal fibroblasts (CCD-1064Sk, ATCC® CRL-2076™) were inoculated into a 60 mm dish using IMDM (Welgene, Korea), cultured for 24 hours, and then replaced with fresh serum-free IMDM. […] After removal of the medium, the cells were collected by using QIAzol™ Lysis Reagent (Qiagen), and RNA thereof was isolated according to the protocol of the manufacturer. After quantifying the isolated RNA, cDNA was synthesized with 1 µg of RNA, followed by Real-time PCR (Applied Biosystems, 7500 FAST Real-Time PCR System).

[3] = tested on: MMP-1; experiment: Inhibition of MMP-1 gene expression in UVA-damaged cells (real-time PCR); conditions: UVA-irradiated CCD-1064Sk, 24 hours, concentration 1 µg/mℓ; UVA alone 100.0, control group 50.5
Description: Human dermal fibroblasts (CCD-1064Sk, ATCC® CRL-2076™) were inoculated into a 60-mm dish using IMDM (Welgene, Korea) and cultured for 24 hours, followed by UVA irradiation. Afterwards, the medium was replaced with fresh serum-free IMDM, and samples were each treated at different concentrations and cultured for 24 hours at 37° C. in a 5 % CO2 incubator. After removal of the medium, the cells were collected by using QIAzol™ Lysis Reagent (Qiagen), and RNA thereof was isolated according to the protocol of the manufacturer. After quantifying the isolated RNA, cDNA was synthesized with 1 µg of RNA, followed by Real-time PCR (Applied Biosystems, 7500 FAST Real-Time PCR System).

| Compound | Mean (gene expression of collagen type I) [1] | Mean (gene expression of collagen type III) [2] | Mean (gene expression of MMP-1) [3] |
| --- | --- | --- | --- |
| O=C1O[C@H]([C@@H](O)CO)C(O)=C1O [Vitamin C, vitamin C] | 134.2 | 135.6 |  |
| O=C(O[C@@H]1Cc2c(O)cc(O)cc2O[C@@H]1c1cc(O)c(O)c(O)c1)c1cc(O)c(O)c(O)c1 [EGCG] |  |  | 56.7 |
